In patent publication US20260165323A1, “USE OF STROBILURIN TYPE COMPOUNDS FOR COMBATING PHYTOPATHOGENIC FUNGI CONTAINING AN AMINO ACID SUBSTITUTION F129L IN THE MITOCHONDRIAL CYTOCHROME B PROTEIN CONFERRING RESISTANCE TO QO […]” (priority 2022, published 2026):

Key:
[1] = test system: Phakopsora pachyrhizi containing the amino acid substitution F129L in the mitochondrial cytochrome b protein; assay: Use Example 1: protective control of soybean rust on soybeans (PHAKPA P2); format: in vivo; settings: inoculated 2 days after spraying, % diseased leaf area
Summary of the method: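 Protective test: plants were inoculated with the F129L cytochrome b rust strain 2 days after spraying to run-off, then held 24 h humid (~95% RH, 20-24° C) and up to 14 days at 23-27° C, 60-80% RH. Readout was visually assessed percent diseased leaf area.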

[2] = test system: Phakopsora pachyrhizi containing the amino acid substitution F129L in the mitochondrial cytochrome b protein; assay: Use Example 2: protective control of soybean rust on soybeans (PHAKPA P6); format: in vivo; settings: inoculated six days after spraying, % diseased leaf area
Summary of the method: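 Disease was rated visually as % diseased leaf area up to 14 days after inoculation (23–27°C, 60–80% RH). Inoculum was P. pachyrhizi carrying cytochrome b F129L, followed by 24 h in a humid chamber (~95% RH). Inoculation came six days after protective spraying of seedlings with compound in acetone/DMSO–Wettol–water.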

Puccinia recondita [3] = assay: Use Example 3: curative control of brown rust on wheat (PUCCRT K4); format: in vivo; settings: % diseased leaf area
Summary of the method: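 Wheat seedlings inoculated with Puccinia recondita spores, held 24 h at 95–99% RH, 20–24° C in dark, then 3 days in greenhouse before spraying to run-off (curative). Compound in acetone/DMSO–Wettol–water. After 5–7 further days at 20–24° C, 65–70% RH, % diseased leaf area scored visually.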

Puccinia recondita [4] = assay: Use Example 4: preventative control of brown rust on wheat (PUCCRT P7); format: in vivo; settings: inoculated seven days after spraying, % diseased leaf area
Summary of the method: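 Preventative test: Puccinia recondita spores dusted onto wheat seedlings seven days after spraying their first two leaves to run-off with the formulated compound. After 24 h humid dark incubation at 20–24 °C and 9–11 days of greenhouse growth at 65–70% RH, infection rated visually as % diseased leaf area.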

[5] = test system: Drechslera teres (PYRNTE) containing the amino acid substitution F129L in the mitochondrial cytochrome b protein; assay: Use example 10: microtest, growth of Drechslera teres (PYRNTE) F129L; format: cell-based; settings: relative growth vs compound-free control (100%), 7 days; for Growth (%) PYRNTE F129L Use ex. 10: 125 ppm, Table 12
Method: (§1) The active compounds were formulated separately as a stock solution having a concentration of 10000 ppm in dimethyl sulfoxide. The stock solutions were mixed according to the ratio, pipetted onto a micro titer plate (MTP) and diluted with water to the stated concentrations. A spore suspension of one of the following fungal plant pathogens in aqueous bio malt solution • was then added for the respective use example: • Use example 5: Alternaria solani (ALTESO) • Use example 6: Botrytis cinerea (BOTRCI) • Use example 7: Cercospora sojina (CERCSO) • Use example 8: Colletotrichum orbiculare (COLLLA) • Use example 9: Leptosphaeria nodorum (LEPTNO) • Use example 10: Drechslera teres (PYRNTE) containing the amino acid substitution F129L in the mitochondrial cytochrome b protein conferring resistance to Qo inhibitors • Use example 11: Sclerotinia sclerotiorum (SCLESC), solute with ultrasonic from a filter membrane
(§2) The plates were placed in a water vapor-saturated chamber at a temperature of 18° C. Using an absorption photometer, the MTPs were measured at 405 nm 7 days after the inoculation.
(§3) The measured parameters were compared to the growth of the active compound-free control variant (100%) and the fungus-free blank value to determine the relative growth in % of the pathogens in the respective active compounds.

[6] = test system: Cercospora sojina (CERCSO); assay: Use example 7: microtest, growth of Cercospora sojina (CERCSO); format: cell-based; settings: relative growth vs compound-free control (100%); for Growth (%) CERCSO Use ex. 7: 125 ppm, 7 days, Table 12; for Growth at 31 ppm (%) CERCSO Use ex. 7: 7 days after inoculation
Method: as §1, §2, §3

[7] = test system: Leptosphaeria nodorum (LEPTNO); assay: Use example 9: microtest, growth of Leptosphaeria nodorum (LEPTNO); format: cell-based; settings: relative growth vs compound-free control (100%), 7 days, Table 10
Method: as §1, §2, §3

[8] = test system: Colletotrichum orbiculare (COLLLA); assay: Use example 8: microtest, growth of Colletotrichum orbiculare (COLLLA); format: cell-based; settings: 2 ppm; relative growth vs compound-free control (100%), 7 days after inoculation
Method: as §1, §2, §3

| Structure (SMILES) | % PHAKPA (F129L) Disease level P2 at 4 ppm [1] [%] | % PHAKPA (F129L) Disease level P2 at 16 ppm [1] [%] | % PHAKPA (F129L) Disease level P6 at 4 ppm [2] [%] | % PHAKPA (F129L) Disease level P6 at 16 ppm [2] [%] | % PUCCRT Disease level K4 at 4 ppm (Puccinia recondita [3]) [%] | % PUCCRT Disease level K4 at 16 ppm (Puccinia recondita [3]) [%] | % PUCCRT Disease level P7 at 4 ppm (Puccinia recondita [4]) [%] | % PUCCRT Disease level P7 at 16 ppm (Puccinia recondita [4]) [%] | Growth at 8 ppm (%) PYRNTE F129L Use ex. 10 [5] [%] | Growth (%) CERCSO Use ex. 7 [6] [%] | Growth (%) PYRNTE F129L Use ex. 10 [5] [%] | Growth at 125 ppm (%) LEPTNO Use ex. 9 [7] [%] | Growth at 2 ppm (%) COLLLA Use ex. 8 [8] [%] | Growth at 31 ppm (%) CERCSO Use ex. 7 [6] [%] |
| --- | --- | --- | --- | --- | --- | --- | --- | --- | --- | --- | --- | --- | --- | --- |
| CO/C=C(/C(=O)OC)c1cccc(Cl)c1CO/N=C(\COC)c1cccc(F)c1 [compound 14, Methyl-(E)-2-[3-chloro-2-[[(Z)-[1-(3-fluorophenyl)-2-methoxy-ethylidene]amino]oxymethyl]phenyl]-3-methoxy-prop-2-enoate] | 3 | 0 | 2 | 0 | 22 | 1 | 13 | 2 | 3 |  |  |  |  |  |
| CNC(=O)/C(=N/OC)c1cccc(Cl)c1CO/N=C(\COC)c1ccc(Cl)cc1 [compound 36] | 65 | 3 | 57 | 10 | 82 | 2 | 6 | 0 |  | 12 | 2 |  |  |  |
| COC/C(=N\OCc1c(C)cccc1/C(=N\OC)C(=O)OC)c1ccc(F)cc1 [I.2-A-82, reference compound] |  |  |  |  |  |  |  |  |  |  |  | 19 |  |  |
| CO/C=C(/C(=O)OC)c1cccc(F)c1CO/N=C(\COC)c1ccc(F)cc1 [compound 17] | 8 | 0 | 17 | 2 | 53 | 6 | 37 | 8 |  |  |  | 0 |  |  |
| CO/C=C(/C(=O)OC)c1cccc(Br)c1CO/N=C(\COC)c1ccc(F)cc1 [compound 10, Methyl-(E)-2-[3-bromo-2-[[(Z)-[1-(4-fluorophenyl)-2-methoxy-ethylidene]amino]oxymethyl]phenyl]-3-methoxy-prop-2-enoate] | 4 | 0 | 8 | 0 | 13 | 2 | 10 | 2 |  |  |  | 3 |  |  |
| CNC(=O)/C(=N/OC)c1cccc(Cl)c1CO/N=C(\COC)c1ccccc1 [compound 4, (2E)-2-[3-chloro-2-[[(Z)-(2-methoxy-1-phenyl-ethylidene)amino]oxymethyl]phenyl]-2-methoxyimino-N-methyl-acetamide] |  |  |  |  | 77 | 9 | 17 | 4 |  |  |  |  | 29 |  |
| CNC(=O)/C(=N/OC)c1cccc(C)c1CO/N=C(\COC)c1ccccc1 [reference compound] |  |  |  |  |  |  |  |  |  |  |  |  | 44 |  |
| COC/C(=N\OCc1c(C)cccc1/C(=N\OC)C(=O)OC)c1cccc(Cl)c1 [reference compound] |  |  |  |  |  |  |  |  |  |  |  |  |  | 60 |
| CNC(=O)/C(=N/OC)c1cccc(C)c1CO/N=C(\COC)c1ccc(Cl)cc1 [I.3-A-83, reference compound] |  |  |  |  |  |  |  |  |  | 89 | 26 |  |  |  |
| CO/C=C(/C(=O)OC)c1cccc(C)c1CO/N=C(\COC)c1cccc(F)c1 [1.2-A-75, reference compound] |  |  |  |  |  |  |  |  | 34 |  |  |  |  |  |
| COC/C(=N\OCc1c(Cl)cccc1/C(=N\OC)C(=O)OC)c1cccc(Cl)c1 [compound 37] | 67 | 18 | 72 | 39 | 75 | 72 | 40 | 5 |  |  |  |  |  | 40 |
| CNC(=O)/C(=N/OC)c1cccc(Cl)c1CO/N=C(\COC)c1cccc(C#N)c1 [compound 117] | 59 | 5 | 34 | 8 | 18 | 0 | 14 | 1 |  |  |  |  |  |  |
| CO/C=C(/C(=O)OC)c1cccc(Cl)c1CO/N=C(\COC)c1c(F)ccc(F)c1F [compound 113] | 1 | 0 | 10 | 1 | 77 | 13 | 70 | 10 |  |  |  |  |  |  |
| CNC(=O)/C(=N/OC)c1cccc(Cl)c1CO/N=C(\COC)c1ccc(Cl)c(F)c1 [compound 109] | 13 | 2 | 37 | 4 | 63 | 4 | 5 | 0 |  |  |  |  |  |  |
| CO/C=C(/C(=O)OC)c1cccc(Cl)c1CO/N=C(\COC)c1cccc(F)c1F [compound 87] | 5 | 0 | 2 | 0 | 67 | 10 | 28 | 5 |  |  |  |  |  |  |
| CO/C=C(/C(=O)OC)c1cccc(Cl)c1CO/N=C(\COC)c1cccc(OC)c1 [compound 121] | 4 | 0 | 6 | 0 | 5 | 1 | 32 | 4 |  |  |  |  |  |  |
| CCOCC(=NOCc1c(Cl)cccc1C(=COC)C(=O)OC)c1ccccc1 [compound 54] | 21 | 1 | 20 | 3 | 77 | 30 | 75 | 27 |  |  |  |  |  |  |
| CCOC/C(=N\OCc1c(Cl)cccc1/C(=N\OC)C(=O)OC)c1cccc(Cl)c1 [compound 33] | 93 | 67 | 75 | 72 | 73 | 73 | 65 | 35 |  |  |  |  |  |  |
